Assay results from US9492428B2, “Compounds, compositions, pharmaceutical compositions, and methods of use” (University of Louisville Research Foundation, Inc., priority 2011, dated 2016).
Converted amounts (≈) assume the structure as drawn.

How the values were obtained:
Format in all cases: cell-based, human
[1] = tested on: PC3 prostate cancer cells; test: MTT cell proliferation assay in PC3; conditions: after three days of treatment
Experimental: (§1) FIG. 8. Cell proliferation assay. (A) DU145 or PC3 prostate cancer were plated at a density of 1,500 cells per well in 96-well plates and incubated 18 hours at 37° C. to allow adherence. They were untreated or treated by addition of different concentrations of compound I-1 (which were added directly to the medium) or vehicle (DMSO), and proliferation was measured using a 3-(4,5-dimethylthiazol-2-yl)-2,5-diphenyltetrazolium bromide MTT assay after 3 days of treatment. Points, mean of triplicate normalized samples to vehicle sample; bars, SE. (B) GI50 after 3 days of treatment. (C) Prostate cancer cells (DU145 or PC3) or a non-malignant epithelial cells (RWPE-1) were plated at a density of 1,000 cells per well in 96-well plates and incubated 18 hours at 37° C. to allow adherence. They were untreated or treated by addition of different concentrations of compound I-1 (added directly to the medium) or vehicle (DMSO), and proliferation was by MTT assay after 5 days of treatment. Points, mean of triplicate normalized samples to vehicle sample; bars, SE.
(§2) General Experimental Procedure. Compound I-1 was isolated as described in Example Set 1, above. For samples of compound I-1 used in Example Set 2, HPLC and NMR indicated a purity of at least 95%. All experiments described in Example Set 2 were repeated at least two or three times. […]

DU145 cells = test: MTT assay (cytotoxicity / cell proliferation) in DU145
Experimental: FIG. 4. Bioassay of compound I-1, compound I-2, and compound I-3. SPA14-3-2 is pure compound I-2. SPA14-3-3 is pure compound I-3. SPA14-3-4 is pure compound I-1. MTT assays using compound I-1, compound I-2, and compound I-3 against DU145 and RWPE-1 cells lines.
as §1
Isolation, NMR, and X-ray crystallographic analyses. Leaves, stems, and few fruits of Physalis angulate L (Solanaceae) were collected in Rio Domingusa. Kuith/Barranquita, Amazonas Department, Northeastern Peru, and identified by the team led by Walter Lewis (collection voucher 18597, Ext. 1159). Dried and grounded material (46 g) was extracted with ethanol (1 L, 95%) for 7 days. The evaporated crude extract (6.26 g) was denoted SPA. An aliquot (1.5 g) of SPA was partitioned between dichloromethane (40 mL) and water (40 mL), affording two fractions: organic (SPA1, 500 mg) and aqueous (SPA2, 600 mg). All MTT assays were performed as described in Bates et al. “G-Rich Oligonucleotides for Cancer Treatment” Chapter 21 of Methods in Molecular Biology, Gene Therapy of Cancer, Wolfgang Walther and Ulrike S. Stein (eds.), Vol. 542, 2009, Humana Press. […] SPA14-3 (30 mg) was treated on an HPLC using a reverse phase C18 column eluted in gradient mode of methanol and water (from 80% methanol to 100% methanol) and detected at 254 nm, yielding SPA14-3-1 (0 mg), SPA14-3-2 (1.2 mg of pure compound I-2), SPA14-3-3 (4.1 mg of pure compound I-3), and SPA14-3-4 (18 mg of pure compound I-1).
as §2

PC3 cells = test: Flow cytometric analysis of cell cycle (propidium iodide) in PC3; conditions: 10 μM
Experimental: FIG. 11. Compound I-1 induces cell cycle arrest and apoptosis in PC3 cells. Prostate cancer cells were left untreated (−) or treated with compound I-1 (10 μM) or with vehicle (DMSO) for the time indicated in the figure. (A) For flow cytometric analysis of cell cycle parameters, cells were fixed, and stained with propidium iodide. Each histogram indicates the percent of cells in G1, S, and G2/M phases of the cell cycle. Data were gated to exclude apoptotic cells for these calculations. (B) After treatment, cells were lysed and total lysates were analyzed for cellular apoptotic markers by immunoblotting using anti-PARP-1 or anti-cleaved Caspase-3 antibodies. Anti-GAPDH-1 antibody was used as loading control. (C) Some 48 h-treated PC3 cells were harvest by trypsinization, washed with PBS, and total DNA was extracted then analyzed on a 1.8% agarose gel. M indicates DNA size marker (base pairs).
Flow cytometric assays of cell cycle and cell death. Cells in fresh complete medium were plated (2×10^5 per well) into six-well plates for 18 h. After complete adhesion, cells were treated as indicated in the figures and harvested by trypsinization. […] Cells were then analyzed by flow cytometry using a FACScalibur cytometer (BD Biosciences, Mountain View, Calif.) and FlowJo program (Tree Star, Inc., Ashland, Oreg.).

Compound: C[C@@H]1CC[C@H]2C3C(O[C@]4([C@]5(O)CC6(C)C(=O)OC5C[C@@]6(C)O)CC[C@@]31O4)[C@H]1O[C@]13CC=CC(=O)[C@]23C (stereo partly shown) [I-1]
- concentration of maximum antiproliferative activity [1]: 10 µM
- GI50 (DU145 cells; Homo sapiens, DU-145, MTT assay, FIG. 4, read-out: GI50 against DU145): ~1.5 µg/mL (≈ 3 µM)
- concentration of maximum antiproliferative activity (DU145 cells; after three days of treatment): 10 µM
- G2/M arrest (PC3 cells): able to cause G2/M arrest
